Data from patent US11952365B2, “Anti-viral compounds” (Aligos Therapeutics, Inc., priority 2020, dated 2024).
Read-outs that look alike come from different tables or passages of the source.

Key:
[1] = tested on: SARS-CoV-2-GHB-03021/2020; test: SARS-CoV-2 Infection Model in Huh7 Cells; type: cell-based; conditions: Severe acute respiratory syndrome coronavirus 2, Huh-7, 96 h, SARS-CoV-2, day 4 p.i., MTS, class symbols
[2] = Cytotoxicity plates without OC43 virus (cell-titer-glo); type: cell-based, human; conditions: human; HeLa cells without OC43 virus, class symbols
Method in brief: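 HeLa cells seeded overnight, then treated with serially diluted compounds in 2% FBS EMEM, uninfected, in parallel with the OC43 antiviral plates. Incubated 6 days at 33 °C; viability read by CellTiter-Glo luminescence.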

[3] = tested on: human beta-coronavirus OC43; test: microbe, parasite or virus in culture; type: cell-based; conditions: Betacoronavirus 1, OC43, HeLa, 144 h
in vitro [4] = conditions: human
[5] = tested on: SARS-CoV-2-GHB-03021/2020; test: microbe, parasite or virus in culture; type: cell-based; conditions: Severe acute respiratory syndrome coronavirus 2, Vero C1008, 96 h; read-out: VeroE6 + CP (EC50)
human cathepsin L = target: T1, human cathepsin L (Homo sapiens, UniProt P07711); test: cathepsin L assay; type: biochemical; conditions: 10 pM human cathepsin L, Z-FR-AMC 2 μM
T1 construct: purchased R&D Systems
Method in brief: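 Human cathepsin L at 10 pM was preincubated 30 min with compound, then reaction started with Z-FR-AMC (2 μM final). Fluorescence (355/460 nm) read every 2 min for 30 min; IC50 from four-parameter curve fit.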

in vitro [6] = conditions: African green monkey, VeroE6 + CP (CC50), Vero E6-eGFP cells with CP-100356, absence of virus, MTS
3CLpro = 3CLpro (Severe acute respiratory syndrome coronavirus 2, UniProt P0DTD1); test: SARS-CoV-2 3CLpro protease assay (duplex, SAMDI-MS); type: biochemical; parameters: For the duplex assay, 3CLpro and HRV3C was added; conditions: 30 mins preincubation, class symbols
HRV3C = HRV3C (Human rhinovirus 14, UniProt P03303); test: HRV3C protease assay (duplex, SAMDI-MS); type: biochemical, HRV; conditions: 30 mins preincubation
Method in brief: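 Steps: enzymes (HRV3C plus 3CLpro) and compound preincubated 30 min; two peptide substrates added; 30 min reaction at ambient temperature; formic acid quench; SAMDI capture and reflector-positive TOF analysis. Product quantified against internal standard peptides. IC50 by four-parameter equation.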

[7] = 3CLpro, read-out: SARS-Cov-2 IC50
[8] = HRV3C, class symbols, read-out: HRV IC50
[9] = OC43 in HeLa cells, 6 days at 33° C., class symbols, read-out: EC50
[10] = HRV3C, bound, read-out: HRV IC50

Compound	EC50 [1] [nM]	CC50 at 6 days [2] [nM]	EC50 ([3]; OC43 in HeLa cells, 6 days at 33° C., bound, read-out: EC50) [nM]	CC50 (in vitro [4]) [nM]	EC50 [5] [nM]	IC50 (human cathepsin L; class symbols) [nM]	CC50 (in vitro [6]; numeric bounds) [nM]	IC50 (3CLpro; [7]) [nM]	IC50 (HRV3C; [8]) [nM]	EC50 [3, 9] [nM]	CC50 (in vitro [6]; class symbols) [nM]	IC50 (HRV3C; [10]) [nM]	IC50 (HRV3C; HRV IC50, HRV3C, class symbols) [nM]	EC50 [3] [nM]	IC50 (HRV3C; HRV IC50, HRV3C, bound) [nM]	IC50 (human cathepsin L; bound) [nM]	IC50 (3CLpro; SARS-Cov-2 IC50, 3CLpro) [nM]
COc1cccc2[nH]c(C(=O)N3C[C@@H]4CCC[C@@H]4[C@H]3C(=O)N[C@@H](C[C@@H]3CCNC3=O)C(=O)C(=O)N[C@H]3CCOC3)cc12 [Compound 103]	10000 to 100000	> 10000	> 10000	> 100000	10000 to 100000	≥ 10000	> 100000	20 to 200	200 to 2000								
C=C[C@@H]1C[C@@H](C(=O)N[C@@H](C[C@@H]2CCNC2=O)C(=O)C(=O)NCc2ccccc2)N(C(=O)c2cc3ccccc3[nH]2)C1 [Compound 30]	1000 to 10000	> 10000		> 100000	1000 to 10000	< 100	> 100000	20 to 200	200 to 2000	100 to 1000							
O=C1NCC[C@H]1C[C@H](NC(=O)[C@@H]1[C@H]2CCC[C@H]2CN1C(=O)c1cc2c(Cl)cc(Oc3ccccc3)cc2[nH]1)C(=O)CO [Compound 129, (1S,3aR,6aS)-2-(4-chloro-6-phenoxy-1H-indole-2-carbonyl)-N-[(2S)-4-hydroxy-3-oxo-1-[(3S)-2-oxopyrrolidin-3-yl]butan-2-yl]-hexahydro-1H-cyclopenta[c]pyrrole-1-carboxamide]	< 1000	> 10000		> 10000	< 1000	≥ 10000		< 20		< 100	> 10000	> 10000					
O=C1NCC[C@H]1C[C@H](NC(=O)[C@@H]1[C@H]2[C@H]3CC[C@H](C3)[C@H]2CN1C(=O)c1cc2c(Cl)cc(Cl)cc2[nH]1)C(=O)CO [Compound 135, (1S,3aR,4R,7S,7aS)-2-(4,6-dichloro-1H-indole-2-carbonyl)-N—((S)-4-hydroxy-3-oxo-1-((S)-2-oxopyrrolidin-3-yl)butan-2-yl)octahydro-1H-4,7-methanoisoindole-1-carboxamide]	< 1000	> 10000		> 10000	< 1000	≥ 10000		20 to 200		100 to 1000	> 10000		2000 to 20000				
O=C1NCC[C@H]1C[C@H](NC(=O)[C@@H]1[C@H]2CCC[C@H]2CN1C(=O)c1nc2c(Cl)ccc(Cl)c2[nH]1)C(=O)CO [Compound 139, (1S,3aR,6aS)-2-(4,7-dichloro-1H-1,3-benzodiazole-2-carbonyl)-N-[(2S)-4-hydroxy-3-oxo-1-[(3S)-2-oxopyrrolidin-3-yl]butan-2-yl]-hexahydro-1H-cyclopenta[c]pyrrole-1-carboxamide]	< 1000	> 10000		> 50000	< 1000	≥ 10000	> 50000	< 20						100 to 1000	> 10000		
COc1cccc2sc(C(=O)N3C[C@@H]4CCC[C@@H]4[C@H]3C(=O)N[C@@H](C[C@@H]3CCNC3=O)C(=O)CO)cc12 [Compound 72, (1S,3aR,6aS)—N-[(2S)-4-hydroxy-3-oxo-1-[(3S)-2-oxopyrrolidin-3-yl]butan-2-yl]-2-(4-methoxy-1-benzothiophene-2-carbonyl)-hexahydro-1H-cyclopenta[c]pyrrole-1-carboxamide]	1000 to 10000	> 10000		> 100000	1000 to 10000		> 100000	200 to 2000		100 to 1000		> 10000				> 3300	
COc1cccc2[nH]c(C(=O)N3C[C@@H]4CCC[C@@H]4[C@H]3C(=O)NC(C[C@@H]3CCNC3=O)C(=O)C(=O)NCc3ccccc3)cc12 (stereo partly drawn) [Compound 16, 3-[[(1S,3aR,6aS)-2-(4-methoxy-1H-indole-2-carbonyl)-hexahydro-1H-cyclopenta[c]pyrrol-1-yl]formamido]-N-benzyl-2-oxo-4-[(3S)-2-oxopyrrolidin-3-yl]butanamide]	1000 to 10000	> 10000		> 10000	1000 to 10000	≥ 10000		20 to 200	200 to 2000	100 to 1000	> 10000						
O=C1NCC[C@H]1C[C@H](NC(=O)[C@@H]1[C@H]2CCC[C@H]2CN1C(=O)c1cc2c(Cl)ccc(Cl)c2[nH]1)C(=O)CO [Compound 156, (1S,3aR,6aS)-2-(4,7-dichloro-1H-indole-2-carbonyl)-N-[(2S)-4-hydroxy-3-oxo-1-[(3S)-2-oxopyrrolidin-3-yl]butan-2-yl]-hexahydro-1H-cyclopenta[c]pyrrole-1-carboxamide]	< 1000	> 10000		> 50000	< 1000	≥ 10000	> 50000	< 20		100 to 1000		> 10000					
O=C(NC1CC1)C(=O)[C@H](C[C@@H]1CCNC1=O)NC(=O)[C@@H]1CC2(CCN1C(=O)c1cc3ccccc3s1)CC2 [Compound 165]	< 1000	> 10000		> 10000	< 1000	1000 to 10000	> 50000	20 to 200	200 to 2000	100 to 1000							
COc1cccc2[nH]c(C(=O)N3C[C@@H]4CCC[C@@H]4[C@H]3C(=O)N[C@@H](C[C@@H]3CCNC3=O)C(=O)C(=O)NCCOCc3ccccc3)cc12 [Compound 101]	1000 to 10000	> 10000		> 50000	1000 to 10000	≥ 10000		< 20	200 to 2000	100 to 1000	> 10000						
COc1ccc(Br)c2[nH]c(C(=O)N3C[C@@H]4CCC[C@@H]4[C@H]3C(=O)N[C@@H](C[C@@H]3CCNC3=O)C(=O)CO)cc12 [Compound 124, (1S,3aR,6aS)-2-(7-bromo-4-methoxy-1H-indole-2-carbonyl)-N-[(2S)-4-hydroxy-3-oxo-1-[(3S)-2-oxopyrrolidin-3-yl]butan-2-yl]-hexahydro-1H-cyclopenta[c]pyrrole-1-carboxamide]	< 1000	> 10000		> 50000	< 1000	≥ 10000	> 50000	< 20	2000 to 20000	100 to 1000							
COc1cccc2[nH]c(C(=O)N3C[C@H](C(F)(F)F)C[C@H]3C(=O)N[C@@H](C[C@@H]3CCCNC3=O)C(=O)COCc3ccccc3)cc12 [Compound 45A]	1000 to 10000	> 10000		> 10000	1000 to 10000	≥ 10000		20 to 200	2000 to 20000	100 to 1000	> 10000						
COc1ccc(Cl)c2[nH]c(C(=O)N3C[C@@H]4CCC[C@@H]4[C@H]3C(=O)N[C@@H](C[C@@H]3CCNC3=O)C(=O)CO)cc12 [Compound 89, (1S,3aR,6aS)-2-(7-chloro-4-methoxy-1H-indole-2-carbonyl)-N-[(2S)-4-hydroxy-3-oxo-1-[(3S)-2-oxopyrrolidin-3-yl]butan-2-yl]-hexahydro-1H-cyclopenta[c]pyrrole-1-carboxamide]	< 1000	> 10000		> 50000	< 1000	≥ 10000	> 100000			100 to 1000					> 10000		< 20
O=C1NCC[C@H]1C[C@H](NC(=O)[C@@H]1[C@H]2CCC[C@H]2CN1C(=O)c1cc2c(OC(F)F)cc(Cl)cc2[nH]1)C(=O)CO [Compound 126, (1S,3aR,6aS)-2-[6-chloro-4-(difluoromethoxy)-1H-indole-2-carbonyl]-N-[(2S)-4-hydroxy-3-oxo-1-[(3S)-2-oxopyrrolidin-3-yl]butan-2-yl]-hexahydro-1H-cyclopenta[c]pyrrole-1-carboxamide]	1000 to 10000	> 10000		> 50000	1000 to 10000	≥ 10000	> 50000	< 20	2000 to 20000	< 100							
